The values that follow come from patent US5858684A, “Method of screening calcium receptor-active molecules” (priority 1995, dated 1999).

The nature of assay [1]: serum/blood ionized Ca2+ in rats. Type of assay: in vivo, rat. To be noted: i.p. As to the method: (§1) Compounds shown to activate the bovine parathyroid cell calcium receptor in vitro were tested for hypocalcemic activity in vivo. Male Sprague-Dawley rats (200 g) were maintained on a low calcium diet for one week prior to receiving test substance or vehicle as control. Blood was collected from the tail vein three hours after the intraperitoneal administration of NPS 467. […] Serum total calcium, albumin and phosphate were measured by techniques well known in the art.
Rats (male, Sprague-Dawley, 250-300 g) were fed standard rat chow and fasted overnight prior to the experiment. NPS R-467 was suspended in corn oil and administered as a single oral dose through a gavage needle. Three hours later a sample of blood was taken from the tail vein and assessed for ionized Ca^2+ levels.

Assay [2] can be described thus: circulating PTH in rats. Type of assay: in vivo, rat.
The nature of assay [3]: serum albumin and phosphate in rats. Type of assay: in vivo, rat. To be noted: any dose examined. As to the method: as §1
The conditions of assay [4]: cited from earlier work.
Assay [5] deals with T1, bovine parathyroid cell calcium receptor (BoPCaR 1) (Bos taurus, UniProt P35384).
T1 construct: Xenopus oocytes were injected with BoPCaR 1, the 5.3 Kb cDNA encoding a bovine parathyroid cell calcium receptor; expressed in transfected cells; host or cells: Xenopus laevis oocytes injected with cRNA/cDNA of BoPCaR 1
T1 sequence (P35384 20-1085): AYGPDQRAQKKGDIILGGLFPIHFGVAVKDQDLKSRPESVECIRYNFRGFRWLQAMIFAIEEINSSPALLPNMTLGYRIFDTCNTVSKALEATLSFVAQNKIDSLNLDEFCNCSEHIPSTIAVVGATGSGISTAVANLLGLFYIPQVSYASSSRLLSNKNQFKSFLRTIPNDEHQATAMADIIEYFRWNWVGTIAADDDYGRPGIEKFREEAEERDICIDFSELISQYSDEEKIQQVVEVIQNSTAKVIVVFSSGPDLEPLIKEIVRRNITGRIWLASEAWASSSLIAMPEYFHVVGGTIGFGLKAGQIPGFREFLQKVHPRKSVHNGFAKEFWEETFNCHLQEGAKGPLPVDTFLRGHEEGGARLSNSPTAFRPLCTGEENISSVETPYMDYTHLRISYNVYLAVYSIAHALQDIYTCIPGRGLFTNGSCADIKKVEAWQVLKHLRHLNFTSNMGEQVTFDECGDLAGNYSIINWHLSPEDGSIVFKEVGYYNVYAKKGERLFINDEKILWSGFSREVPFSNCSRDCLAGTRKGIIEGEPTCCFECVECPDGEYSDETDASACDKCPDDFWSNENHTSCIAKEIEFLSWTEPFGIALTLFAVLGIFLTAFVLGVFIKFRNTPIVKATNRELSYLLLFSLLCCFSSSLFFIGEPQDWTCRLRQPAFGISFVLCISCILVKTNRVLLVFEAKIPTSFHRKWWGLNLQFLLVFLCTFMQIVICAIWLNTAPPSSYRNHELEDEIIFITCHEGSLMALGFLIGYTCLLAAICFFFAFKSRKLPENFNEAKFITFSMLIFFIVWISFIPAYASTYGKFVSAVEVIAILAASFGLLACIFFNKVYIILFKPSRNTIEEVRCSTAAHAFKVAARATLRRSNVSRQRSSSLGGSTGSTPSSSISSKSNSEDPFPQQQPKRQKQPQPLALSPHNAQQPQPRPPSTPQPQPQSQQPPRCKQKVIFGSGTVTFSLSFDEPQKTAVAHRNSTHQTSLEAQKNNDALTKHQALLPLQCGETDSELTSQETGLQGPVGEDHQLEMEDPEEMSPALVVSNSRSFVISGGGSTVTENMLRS
The assay is described as follows: inositol 1,4,5-triphosphate in Xenopus oocytes expressing BoPCaR 1. Type of assay: cell-based. To be noted: 10 μg/ml, 48 hours. An excerpt:
These responses are mediated by the following series of biochemical events:
(1) Activation of phospholipase C by a pertussis toxin-sensitive guanine nucleotide regulatory (G) protein resulting in 4-7 fold increases in the levels of inositol 1,4,5-triphosphate (IP3).

Consider `COc1cccc(C(C)NCCCc2ccccc2)c1` (racemic) [NPS 467], for which the “serum or blood Ca2+” value in assay [1] (low calcium diet, 3 hours after dosing, rats) is “dose-dependent reduction in serum or whole blood”. The “time of maximal hypocalcemic effect” value in assay [1] (returned toward control levels after 24 hours) is “maximal within three hours”. In assay [2], the “circulating levels of PTH” value was “dose-dependent reduction in circulating levels of PTH”. Further, the “serum albumin or phosphate levels” value in assay [3] is recorded as “no change in serum albumin or phosphate levels”.
Take `NCCCC[C@H](N)C(=O)O` [lysine]: the “interaction with phospholipid vesicles” value in assay [4] is reported as “not interacting to a significant extent”.
For the compound pertussis toxin, the “inhibition of the increase in IP3 by pertussis toxin” value in assay [5] was found to be 75%.
